# Tested on: Ba/F3 TelJAK2 cells
# Assay: Subcutaneous tumour model of Ba/F3 TelJAK2 cells in nude mice
# Format: in vivo, mouse
# Conditions: 5 mg/kg i.v. 3× weekly, after 14 days of dosing, t-test p<0.05
# Procedure: Dosing commenced 11 days post-tumour cell inoculation, when tumours were palpable (mean tumour volume of 6 mm^3). Tumour dimensions were measured twice weekly.
structure (smiles),measurement,value
"CC(=O)O[C@H]1C(=O)[C@@]2(C)[C@H]([C@H](OC(=O)c3ccccc3)[C@]3(O)C[C@H](OC(=O)[C@H](O)[C@@H](NC(=O)c4ccccc4)c4ccccc4)C(C)=C1C3(C)C)[C@]1(OC(C)=O)CO[C@@H]1C[C@@H]2O [Taxol, reference compound]",tumour volumes compared to Vehicle Control Treated Group,smaller tumour volumes
